Measurements: US9725415B2, “Process for the preparation of 5-fluoro-1H-pyrazoles” (BAYER CROPSCIENCE AKTIENGESELLSCHAFT, priority 2013, dated 2017)

Experiment: log P determination by HPLC on a phase inversion column (C18), EEC Directive 79/831 Annex V.A8
Type: physicochemical
Conditions: HPLC-MS method a): C18 column, gradient 10% to 95% acetonitrile (0.1% formic acid) / water (0.09% formic acid), oven 55° C.

SMILES | chromatographic logP
Cn1nc(C(F)(F)C(F)(F)F)c(C(F)(F)F)c1-n1cc(-c2ccc(Cl)c(C(=O)NC3(C#N)CC3)c2)cn1 [Compound (IIIa), 2-Chloro-N-1-cyano-cyclopropyl-5-[2′-methyl-5′-(pentafluoroethyl)-4′-(trifluoromethyl)-2′H-1,3′-bipyrazol-4-yl]benzamide] | 3.72
Cn1nc(C(F)(F)C(F)(F)F)c(C(F)(F)F)c1-n1cc(Br)cn1 [Intermediate (12), 4-bromo-2′-methyl-5′-(pentafluoroethyl)-4′-(trifluoromethyl)-2′H-1,3′-bipyrazole] | 4.14
Cn1nc(C(F)(F)C(F)(F)F)c(C(F)(F)F)c1C(=O)Nc1ccc(Cl)c(C(=O)NCc2ccccc2)c1 [Compound (IIa), N-[4-chloro-3-(benzylcarbamoyl)phenyl]-1-methyl-3-(pentafluoroethyl)-4-(trifluoromethyl)-1H-pyrazole-5-carboxamide] | 3.9
